Test results published in patent US5079231A, “Immunostimulating peptides, a process for their preparation and pharmaceutical compositions containing them” (Ellem Industria Farmaceutica S.p.A., priority 1988, dated 1992).
No end group written: not given here.

Assays:
[1] = tested on: T-lymphocytes; conditions: known peptides, earlier patent applications and literature; cited from earlier work
[2] = known tripeptides; cited from earlier work
[3] = Resistance to the in vitro simulated gastric ambient; format: in vitro ADME; conditions: 37° C., 3 hours, gastric simulated juice USP XXl (HCl+pepsin)
Experimental: Resistance to the in vitro simulated gastric ambient
The hexapeptides Arg-Lys-Glu-Arg-Ala-Arg and Arg-Ala-Arg-Arg-Lys-Glu are stable at 37° C. for 3 hours in in vitro simulated gastric ambient using the gastric simulated juice USP XXl (HCl+pepsin).

Q: With Arg-Ala-Arg as the substance, how does the “immunostimulating activity (maturation and functionality of T-lymphocytes)” value (“immunostimulating activity” for short) [1] read?
A: endowed with immunostimulating activity

Q: What about the “stability to the in vitro simulated gastric juice” value [2] of the same substance?
A: stable

Q: For Arg-Gly-Asp, which “immunostimulating activity” value [1] is on record?
A: displays a similar behaviour

Q: For Arg-Lys-Asp, which “immunostimulating activity” value [1] is on record?
A: displays a similar behaviour

Q: Which “immunostimulating activity” value [1] does the source give for Arg-Lys-Glu here?
A: has immunostimulating properties

Q: And the “stability to the in vitro simulated gastric juice” value [2]?
A: stable

Q: With “RARRKE [ARG--ALA--ARG--ARG--LYS--GLU, Arg-Ala-Arg-Arg-Lys-Glu]” as the substance, how does the “Resistance to the in vitro simulated gastric ambient” value [3] read?
A: stable

Q: Which “Resistance to the in vitro simulated gastric ambient” value [3] does the source give for “RKERAR [ARG--LYS--GLU--ARG--ALA--ARG, Arg-Lys-Glu-Arg-Ala-Arg]” here?
A: stable
